Assay results taken from patent publication US4699903A, “Therapeutic use of tin diiododeuteroporphyrin” (The Rockefeller University, priority 1987, dated 1987).
Values joined by “and” are separate entries in the source; they are usually repeats but may differ in a detail not shown here. Identical values can stand only once. Like-named read-outs stand apart in the source and are kept apart here.

Key:
heme oxygenase [1] = assay: Hepatic heme oxygenase activity in ALA-treated 7-day old suckling rats; assay type: in vivo, rat; conditions: ALA 50 μmmol/100 g at 0, 4 and 8 hours, sacrificed 16 hours after last ALA
Method: (§1) The next study established the ability of SnI2 DP to inhibit the ability of γ-aminolevulinic acid (ALA) to produce jaundice. This study of the efficacy of SnI2 DP to control hyperbilirubinemia thereby preventing the jaundice which develops in rats treated 7 days after birth with ALA is described by Drummond and Kappas, J. Clin. Invest. 74, 142-149 (1984). In the test, ALA (50 μmmol/100 g body weight) is administered to suckling 7 day old rats at 0, 4 and 8 hours, the animals sacrificed 16 hours after the last administration of ALA, and the serum biliribin measured.
(§2) Heme oxygenase was determined as described by Drummond and Kappas Proc. Natl. Acad. Sci. USA 78: 6466(1981).

serum bilirubin [2] = assay: Serum bilirubin in ALA-treated hyperbilirubinemia, 7-day old suckling rats; assay type: in vivo, rat; conditions: ALA 50 μmmol/100 g at 0, 4 and 8 hours, sacrificed 16 hours after last ALA
Method: as §1

[3] = Singlet and triplet lifetimes; assay type: physicochemical
Method: (3) Singlet and triplet lifetimes: The singlet lifetime of SnI2 DP was determined to be 23 psec (this is at the lower levels of instrument detection). The singlet lifetimes of SnPP and SnMP are 500-600 p sec. The triplet lifetime of SnI2 DP was determined to be 0.2 millisec. The triplet lifetimes of SnPP and SnMP are 0.5 and 2.5 milliseconds respectively.

heme oxygenase [4] = molecular target: T1, heme oxygenase (Rattus norvegicus, UniProt P06762); assay: Inhibition of heme oxygenase conversion of heme to bilirubin, rat spleen microsomes; assay type: biochemical; set-up: using rat spleen microsomes as the source of heme oxygenase; from tissue; host or cells: rat spleen microsomes; conditions: for inhibition constant compared with that of SnI2 DP: heme oxygenase; for Ki: rat spleen microsomes
T1 sequence (P06762 1-289): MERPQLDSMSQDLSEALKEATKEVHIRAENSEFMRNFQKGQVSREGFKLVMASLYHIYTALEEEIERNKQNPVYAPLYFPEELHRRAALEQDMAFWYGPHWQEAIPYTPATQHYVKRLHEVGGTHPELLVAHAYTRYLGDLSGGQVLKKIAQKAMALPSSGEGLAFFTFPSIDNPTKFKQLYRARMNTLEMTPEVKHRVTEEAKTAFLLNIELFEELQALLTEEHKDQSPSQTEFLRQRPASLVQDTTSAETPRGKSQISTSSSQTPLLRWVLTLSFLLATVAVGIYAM
Method: In an initial study using rat spleen microsomes as the source of heme oxygenase the ability of SnI2 DP to inhibit the activity of heme oxygenase to convert heme to bilirubin was determined.
Km=rate constant for heme oxygenase
KmAPP =rate constant for heme oxygenase in the presence of SnI2 DP

[5] = Fluorescence characteristics in pyridine; assay type: physicochemical
Method: (2) Fluorescence characteristics: A 1 μM solution of SnI2 DP in pyridine was excited at 400 nm and 2 emission peaks were detected at 578 nm and 635 nm. The measurable fluorescence represents less than 5% of that found for SnPP and SnMP.

heme oxygenase [6] = assay: Tissue heme oxygenase activity in newborn rats after SnI2 DP; assay type: in vivo, rat
Method: (§3) The in vivo ability of SnI2 DP to reduce serum bilirubin was established by studies in neonatal rats. The studies were conducted with four separate litters each containing ten neonates.
(§4) To prepare the solution for parenteral administration, SnI2 DP was taken up in a small volume of 0.2N sodium hydroxide, adjusted to pH 7.4 with 1N hydrochloric acid and made up to final volume with 0.9% sodium chloride. The solution as prepared and used contained a final SnI2 DP concentration of 10 μmol/kg body weight in each 0.1 ml injection volume. Control neonates received 0.1 ml of 0.9% sodium chloride at birth. One group of animals was sacrificed at 24 hours which is normally the peak of bilirubin for neonate rates. The total bilirubin in serum was estimated by the method of Roth, Clin. Chem. Acta, 17 487-492, 1967.
as §2

serum bilirubin [7] = assay: Serum bilirubin levels in newborn rats; assay type: in vivo, rat
Method: as §3, §4

biliary bilirubin = assay: Drop in biliary bilirubin production in bile duct cannulated adult rats; assay type: in vivo, rat
Method: (§5) In the next in vivo test designed to measure the decrease in bilirubin production, SnI2 DP was administered intravenously to five adult rats, 12-15 weeks old at a dose of 10 μmol/kg body weight. Five control rats were administered saline. The bile duct was cannulated and the bile fluid analyzed for bilirubin content.

heme oxygenase [8] = assay: Tissue heme oxygenase activity in bile duct cannulated adult rats; assay type: in vivo, rat; conditions: i.v. 10 μmol/kg b.w., n=5
Method: as §5
(§6) In addition, the activity of hepatic, renal and splenic heme oxygenase was decreased in bile duct cannulated animals administered SnI2 DP.
(§7) SnI2 DP administered i.v. at a dose of 10 μmol/kg b.w.
(§8) When compared to saline treated controls, n=5.

heme = assay: Heme excretion in bile after simultaneous i.v. heme and SnI2 DP, bile duct cannulated adult male rats; assay type: in vivo, rat; conditions: heme 6.1 μmol/kg b.w. i.v. simultaneously
Method: (§9) Simultaneous intraveous (IV) administration of heme (6.1 μmol/kg b.w.) and SnI2 DP was examined in four pairs of bile duct cannulated adult male rats. The effect of simultaneous administration of heme and SnI2 DP on heme levels in bile and tissue heme oxygenase activity are shown in Tables V and VI respectively.
(§10) Each group was administered heme (6.1 μmol/kg b.w.) simultaneously with either SnI2 DP or saline.

heme oxygenase [9] = assay: Tissue heme oxygenase activity after simultaneous administration of heme; assay type: in vivo, rat; conditions: heme 6.1 μmol/kg b.w. simultaneously, n = 4
Method: as §9, §10

heme oxygenase [10] = molecular target: T1, heme oxygenase; assay: Tissue heme oxygenase activity in bile duct cannulated adult rats; assay type: in vivo; set-up: from tissue; conditions: i.v. 10 μmol/kg b.w., n=5
Method: as §5, §6, §7, §8

heme oxygenase [11] = molecular target: T1, heme oxygenase; assay: Tissue heme oxygenase activity after simultaneous administration of heme; assay type: in vivo; set-up: from tissue; conditions: heme 6.1 μmol/kg b.w. simultaneously, n = 4
Method: as §9, §10

For `NCC(=O)CCC(=O)O` [ALA, γ-aminolevulinic acid, reference compound], the “Heme Oxygenase Liver” value (heme oxygenase [1]) was 11.29 ± 0.33 nmol/mg p h and the “Serum Bilirubin” value (serum bilirubin [2]) was 0.99 ± 0.06 mg/dL.

For `C=Cc1c2[n-]c(c1C)/C=c1\[n-]/c(c(C)c1C=C)=C\c1[n-]c(c(CCC(=O)O)c1C)C=c1[n-]/c(c(C)c1CCC(=O)O)=C\2.[Sn+4]` [SnPP, tin protoporphyrin IX], the singlet lifetime [3] was 500-600 psec, the triplet lifetime [3] was 0.5 millisec and the “inhibition constant compared with that of SnI2 DP” value (heme oxygenase [4]) was “approximately the same”.

With tin diiododeuteroporphyrin [SnI2 DP] the “fluorescence quenched by comparison with SnPP” value [5] was 95%, the “measurable fluorescence as % of that found for SnPP and SnMP” value ([5]; 1 μM solution in pyridine, excited at 400 nm) was “less than 5%” and the singlet lifetime [3] was 23 psec. For the same compound, the triplet lifetime [3] was 0.2 millisec, the “photosensitizing potential compared with SnPP and SnMP” value ([3]; inferred from fluorescence and triplet lifetime) was “less photosensitizing potential” and the “kidney heme oxygenase activity” value (heme oxygenase [6]; neonates, repeated test, 48 hours after birth) was 0.88 nmol/mg p h. For the same compound, the “Heme Oxygenase Kidney” value (heme oxygenase [6]; newborn rats, 10 μmol/kg at birth, 24 hours, kidney bulked) was 1.13 nmol/mg p h, the “Heme Oxygenase Spleen” value (heme oxygenase [6]; newborn rats, 10 μmol/kg at birth, 24 hours, spleen bulked) was 3.74 nmol/mg p h and the “Heme Oxygenase Liver” value (heme oxygenase [6]; newborn rats, 10 μmol/kg at birth, sacrificed at 24 hours) was 8.07 ± 0.06 nmol/mg p h. For the same compound, the “Serum Bilirubin” value (serum bilirubin [7]; newborn rats, 10 μmol/kg at birth, 24 hours) was 0.34 ± 0.02 mg/dL, the “activity in preventing serum bilirubin increase, as % of that of SnMP” value (serum bilirubin [7]; rat neonates) was “about 10%” and the “activity in preventing serum bilirubin increase, compared with SnPP” value (serum bilirubin [7]; rat neonates) was “roughly the same”. The “Heme Oxygenase Liver” value (heme oxygenase [1]) was 8.29 ± 0.48 nmol/mg p h, the “Serum Bilirubin” value (serum bilirubin [2]) was 0.54 ± 0.02 mg/dL and the “Drop in biliary bilirubin production, % decrease” value (biliary bilirubin; adult rats, 10 μmol/kg i.v., bile duct cannulated, single experiments 1-5) was 60% and 35% and 47% and 44% and 48%. The “average difference between treated and control decline in biliary bilirubin” value (biliary bilirubin; adult rats, 10 μmol/kg i.v., p<0.01) was 21%, the “ability to lower heme oxygenase activity, serum and bile bilirubin levels, compared with SnMP” value (biliary bilirubin; rats) was “not as effective as SnMP” and the “Heme Oxygenase Kidney” value (heme oxygenase [8]) was 0.45 ± 0.03 nmol/mg p h. The “Heme Oxygenase Liver” value (heme oxygenase [8]) was 2.06 ± 0.75 nmol/mg p h, the “Heme excreted in bile (% of administered dose), Average” value (heme; average of 4 experiments) was 44.9 ± 4.79 % of administered dose and the “Heme excreted in bile (% of administered dose)” value (heme; single experiments 1-4) was 51.8 % of administered dose and 48.8 % of administered dose and 48.2 % of administered dose and 30.7 % of administered dose. For the same compound, the “Heme Oxygenase Kidney” value (heme oxygenase [9]) was 1.04 ± 0.22 nmol/mg p h, the “Heme Oxygenase Liver” value (heme oxygenase [9]) was 5.03 ± 0.72 nmol/mg p h and the “Heme Oxygenase Spleen” value (heme oxygenase [10]) was 5.37 ± 1.09 nmol/mg p h. The “Heme Oxygenase Spleen” value (heme oxygenase [11]) was 8.15 ± 0.52 nmol/mg p h, the Ki (heme oxygenase [4]; Lineweaver Burke plots, average of four determinations, read-out: inhibition constant Ki) was 69 ± 7 nM and the Ki (heme oxygenase [4]; four separate determinations, read-out: Ki, separate determinations) was 57 nM and 88 nM and 62 nM and 70 nM.

For tin mesoporphyrin [SnMP], the singlet lifetime [3] was 500-600 psec, the triplet lifetime [3] was 2.5 millisec and the “inhibition constant compared with that of SnI2 DP” value (heme oxygenase [4]) was “approximately the same”.
